Patent US20100168182A1, “COMPOUNDS AND COMPOSITIONS AS KINASE INHIBITORS” (IRM LLC, priority 2006, published 2010)

Legend:
[1] = biological target: T1, Ba/F3 cells transformed with human Tel-TrkA (ETV6-NTRK1) (Homo sapiens, UniProt P04629); test: Inhibition of cellular TrkA dependent proliferation (Ba/F3 Tel-TrkA); type: cell-based; conditions: urea versus amide linkage
T1 construct: expressed in transfected cells; host or cells: Ba/F3 murine hematopoietic progenitor cell line; the other entry of the earlier key: ETV6 (P41212, Transcription factor ETV6)
T1 sequence (P04629 510-796 limits assumed): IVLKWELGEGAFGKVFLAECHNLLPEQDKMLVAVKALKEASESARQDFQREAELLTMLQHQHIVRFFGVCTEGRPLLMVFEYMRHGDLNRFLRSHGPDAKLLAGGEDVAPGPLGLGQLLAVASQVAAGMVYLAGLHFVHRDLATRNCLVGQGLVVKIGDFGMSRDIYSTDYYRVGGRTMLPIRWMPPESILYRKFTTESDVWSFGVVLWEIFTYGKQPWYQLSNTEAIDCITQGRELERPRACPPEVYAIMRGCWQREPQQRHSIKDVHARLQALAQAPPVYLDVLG
Experimental: (§1) Inhibition of Cellular TrkA, trkB or TrkC Dependent Proliferation
(§2) The cell line used is the Ba/F3 murine hematopoietic progenitor cell line transformed with human Tel-TrkA, Tel-TrkB or Tel-TrkC cDNAs (Ba/F3 EN A/B/C). These cells are maintained in RPMI/10% fetal bovine serum (RPMI/F B S) supplemented with penicillin 50 μg/mL, streptomycin 50 μg/mL and L-glutamine 200 mM. Untransformed Ba/F3 cells are similarly maintained with the addition 5 ng/ml of murine recombinant IL3.
(§3) 50 μl of a Ba/F3 or Ba/F3 EN A/B/C cell suspension are plated in Greiner 384 well microplates (white) at a density of 2000 cells per well. 50 nl of serially diluted test compound (1 0-0.0001 mM in DMSO solution) is added to each well. […] The emited luminiscence is quantified using the Acquest™ system (Molecular Devices).
(§4) Compounds of the invention are tested for their antiproliferative effect on Ba/F3 cells expressing either Tel-TrkA, Tel-TrkB or Tel-TrkC and an additional panel of 34 selected diverse kinases activated by fusion to the dimerizing partners Bcr or Tel (Abl, AlK, BMX, EphA3, EphB2, FGFR2, FGFR3, FGFR4, FGR, FLT1, FLT3, FLT4, FMS, IGF1R, InsR, JAK1, JAK2, JAK3, KDR, Kit, Lck, Lyn, MER, MET, PDGFRb, RET, RON, Ros-1, Src, Syk, TIE2, TYK2, Tie1, ZAP70). […] The IC50 values of the compounds in the different cell lines were determined from the dose response curves obtained as describe above.

[2] = Measuring bioavailability: plasma concentration in mice; type: in vivo, male Balb/c mice; conditions: ratio compound 17 / compound A
Experimental: Five- to six-week old male Balb/c mice are housed at room temperature (18 to 22° C.) and humidity in the range 40-70%. The animal weights at the time of compound administration range from 20 to 25 grams. The mice are fed a normal diet and have free access to water at all times, before and during experiments. Fasted animals are studied on an infrequent basis. To maximize drug absorption via oral gavage and/or study food effects, animals are fasted the night before dosing and 4 hours thereafter. Animal experiments are performed according to the Animal Welfare Act and the Guide for the Care and Use of Laboratory Animals approved by the Institutional Animal Care and Use Committee (IACUC).
Test compounds are dissolved in a vehicle for dosing at a final concentration of 0.5 to 10 mg/mL. Test compounds are dosed intravenously via the lateral tail vein and orally using a gavage needle. Dosing procedures, dosing volumes, and the selection of dosing vehicles or formulations adhered to the Guidelines issued by the Novartis Pharmacology Council entitled “Preparation and Administration of Experimental Formulation in Pre-ESC Phase”. Briefly, i.v. doses are administered in solutions that are neutral and isotonic aqueous based and oral doses are administered in either solution (with or without co-solvent) or suspension.
Blood samples are drawn via retro orbital sinus. For ease of handling, animals are sometimes anesthetized under isoflurane vapor. Approximately five 50 μl samples of blood are removed each sampling time.
Pharmacokinetic parameters are calculated by non-compartmental regression analysis using Winnonlin 4.0 software (Pharsight, Mountain View, Calif., USA). The typical intravenous and oral dosing study in mice would results in the reporting of the following pharmacokinetic parameters: i.v. dosing: Vss, CL, AUC, Cmax, Tmax, Clast, Tlast and T1/2; and p.o. dosing: F, AUC, Cmax, Tmax, Clast, Tlast and T1/2.

[3] = biological target: T2, Ba/F3 cells transformed with human Tel-TrkB (ETV6-NTRK2) (Homo sapiens, UniProt Q16620); test: Inhibition of cellular TrkB dependent proliferation (Ba/F3 Tel-TrkB); type: cell-based; conditions: urea versus amide linkage
T2 construct: expressed in transfected cells; host or cells: Ba/F3 murine hematopoietic progenitor cell line; the other entry of the earlier key: ETV6 (P41212, Transcription factor ETV6)
T2 sequence (Q16620 538-822 limits assumed): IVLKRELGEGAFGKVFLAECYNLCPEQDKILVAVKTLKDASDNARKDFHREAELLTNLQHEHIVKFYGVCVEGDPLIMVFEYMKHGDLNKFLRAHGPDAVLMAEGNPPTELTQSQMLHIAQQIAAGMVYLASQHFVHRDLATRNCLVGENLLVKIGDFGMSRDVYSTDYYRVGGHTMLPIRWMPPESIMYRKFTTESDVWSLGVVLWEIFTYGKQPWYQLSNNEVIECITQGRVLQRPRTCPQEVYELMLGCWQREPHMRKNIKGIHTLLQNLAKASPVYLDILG
Experimental: as §1, §2, §3, §4

[4] = tested on: Ba/F3 cells transformed with human Tel-TrkC (ETV6-NTRK3); test: Inhibition of cellular TrkC dependent proliferation (Ba/F3 Tel-TrkC); type: cell-based; conditions: urea versus amide linkage
Experimental: as §1, §2, §3, §4

Row | Compound | melting point | potency for TrkA relative to the equivalent amide-linked compound (compound A) [1] | plasma concentration relative to compound A ([2]; at 30 minutes) | plasma concentration relative to compound A ([2]; at 1 hour) | plasma concentration relative to compound A ([2]; at 3 hours) | plasma concentration relative to compound A ([2]; at 5 hours) | potency for TrkB relative to the equivalent amide-linked compound (compound A) [3] | potency for TrkC relative to the equivalent amide-linked compound (compound A) [4]
1 | O=C(Nc1cccc(Nc2ccc3c(c2)NC(=O)/C3=C\c2ccc[nH]2)c1)Nc1cccc(C(F)(F)F)c1 [Example 1, 1-{3-[2-oxo-3-(1H-pyrrol-2-ylmethylene)-2,3-dihydro-1H-indol-6-ylamino]phenyl}-3-(3-trifluoromethylphenyl)urea] | 253 to 256 °C | – | – | – | – | – | – | –
2 | O=C(Nc1cccc(Nc2ccc3c(c2)NC(=O)/C3=C\c2ccc[nH]2)c1)Nc1ccc(F)cc1F [Compound 17, 1-(2,4-Difluoro-phenyl)-3-{3-[2-oxo-3-(1H-pyrrol-2-ylmethylene)-2,3-dihydro-1H-indol-6-ylamino]-phenyl}-urea] | – | at least 132 fold | 2.2 times | 4.1 times | 4.7 times | 2.3 times | at least 132 fold | at least 132 fold
3 | O=C(Nc1cccc(Nc2ccc3c(c2)NC(=O)/C3=C\c2ccc[nH]2)c1)Nc1cc(F)c(F)cc1F [Example 3, 1-{3-[2-oxo-3-(1H-pyrrol-2-ylmethylene)-2,3-dihydro-1H-indol-6-ylamino]phenyl}-3-(2,4,5-trifluorophenyl)urea] | 224 to 226 °C | – | – | – | – | – | – | –
